Our source for the AC50 values is PubChem BioAssay AID463199 (Broad Institute, 2010).

As a reminder, the AC50 is the midpoint of the concentration-response curve, whichever way the signal moves.

Active and inactive are the calls of the source.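 The calls were made as follows: active = AC50, the dose giving half-maximal effect, exceeds a fixed cutoff for a compound that rescues yeast growth under heat; inactive = the rest, inconclusive results apart.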

The test system of this experiment is S. cerevisiae Burl-1 ts mutant growth, BacTiter-Glo, 38.5C 24 h. The experiment in a line: restored growth of temperature-sensitive Burl-1 yeast – whole organism, S. cerevisiae, Burl-1 ts mutant, luminescence, counter-screen for SUMOylation pathway inhibitor project, dose response (AID 463199). On the technique in general: The purpose of a counterscreen is to sort out artefacts and off-target activity.
With `CC(C)NC(=O)COc1ccc(S(=O)(=O)N(C)Cc2ccccc2)cc1`, the AC50 is > 42 µM (inactive).

As for `Cc1ccc(/C=C/C(=O)OCC(=O)N(CC(C)C)c2c(N)n(Cc3ccccc3)c(=O)[nH]c2=O)o1`, the AC50 is > 21 µM (inactive).

Consider `CCC12CN3CCN(CC(C3)/C1=N/NC(=O)c1ccncc1)C2`, for which the AC50 was > 42 µM (inactive).

For `CCOCCCNCc1ccc(OCc2ccc(F)cc2)c(OC)c1`, the AC50 was > 42 µM (inactive).

Consider `CCC(CC)C(=O)N1CCCC(c2nc(-c3cccs3)no2)C1` (configuration not stated), for which the AC50 was > 42 µM (inactive).

Take `CC(C)CC(c1nnnn1C1CCCCC1)N1CCN(C(=O)c2ccco2)CC1` (configuration not stated): the AC50 was > 42 µM (inactive).

In the case of `CN(C)S(=O)(=O)c1cc(NC(=O)CSc2nn(-c3ccc(Cl)cc3)c(=S)s2)ccc1Cl`, the AC50 was > 42 µM (inactive).

On to `C[N+](C)(C)CC(=O)Nc1ccc(Cl)cc1C(=O)c1ccccc1`, for which the AC50 was > 42 µM (inactive).

Regarding `CCOc1ccc(C(=O)Nc2ccc(N3CCN(C)CC3)cc2)cc1[N+](=O)[O-]`, the AC50 was > 42 µM (inactive).

Regarding `O=C(Nc1ccccc1F)C1CCN(C(=O)Cc2ccccc2)CC1`, the AC50 is > 42 µM (inactive).

As for `CSc1ccccc1NC(=O)COc1nsnc1N1CCOCC1`, the AC50 is > 42 µM (inactive).

Consider `CCOC(=O)N1CCC(NS(=O)(=O)c2ccc(C)c(Cl)c2)CC1`, for which the AC50 was > 42 µM (inactive).

As for `Cc1ccnc(NC(c2cccnc2)c2ccc3cccnc3c2O)c1` (configuration not stated), the AC50 was > 42 µM (inactive).

For `Cc1c(NC(=O)c2ccc(N(C)S(C)(=O)=O)cc2)c(=O)n(-c2ccccc2)n1C`, the AC50 was > 42 µM (inactive).

For the compound `COc1ccccc1N1CCN(CCN2C(=O)C3CCCCN3C2=O)CC1` (configuration not stated), the AC50 was > 42 µM (inactive).

Consider `O=S(=O)(Cc1ccccc1)N1CCN(c2ccccc2)CC1`, for which the AC50 is > 42 µM (inactive).

Turning to `CC(C)NC(=O)NC(=O)COC(=O)CCCSc1nc2ccccc2s1`, the AC50 was > 42 µM (inactive).

Take `CN(C=O)CP(=O)(O)CN(C)C=O`: the AC50 is > 42 µM (inactive).

On to `CC(=O)c1c(N)[nH]c(-c2ccccc2)nc1=S`, for which the AC50 is > 42 µM (inactive).

For `COc1ccc(/C=C(\C#N)C(=O)c2cccn2C)cc1`, the AC50 was > 42 µM (inactive).

As to `Cc1ccc(CC2CC(=O)N(c3ccc4c(c3)OCCO4)C2=O)cc1` (configuration not stated), the AC50 was > 42 µM (inactive).

Regarding `COc1ccc(NC(=O)c2ccccc2NC(=O)NC2CCCCC2)cc1`, the AC50 was > 42 µM (inactive).

Consider `COc1ccc(N2C(=O)CSC2c2ccc([N+](=O)[O-])cc2)cc1` (configuration not stated), for which the AC50 is > 42 µM (inactive).

On to `Cc1cccc2nc3ccccc3cc12`, for which the AC50 is > 42 µM (inactive).

As for `Cc1cccc(NS(=O)(=O)c2ccc3[nH]c(=O)cc(C(=O)O)c3c2)c1`, the AC50 was > 21 µM (inactive).

In the case of `Cc1cc(C)c(S(=O)(=O)c2cccc(C)c2C)c(=O)[nH]1`, the AC50 is > 42 µM (inactive).

Consider `Cc1cc(C)n(-c2nc(-c3cccc(Cl)c3)cs2)n1`, for which the AC50 is > 42 µM (inactive).

For the compound `COc1ccc(/C=N\NC(=O)c2cc(OCC(F)(F)F)ccc2OCC(F)(F)F)cc1`, the AC50 is > 42 µM (inactive).

On to `COc1ccccc1NC(=S)N(Cc1ccco1)Cc1cc2cccc(C)c2[nH]c1=O`, for which the AC50 was > 42 µM (inactive).

For `CC(=O)/C(N)=N/Nc1cccc(Cl)c1`, the AC50 is > 42 µM (inactive).

`CCCCc1n[nH]c(=S)n1Cc1ccc(C)cc1`: the AC50 was > 42 µM (inactive).

`Cc1c(OC(C)C(=O)N2C[C@H]3C[C@@H](C2)c2cccc(=O)n2C3)ccc2c3c(c(=O)oc12)CCCC3` (some centres not stated): the AC50 was > 42 µM (inactive).

Take `COc1ccc(NC(=O)c2cc(S(=O)(=O)Nc3ccc(OC)cc3)cs2)cc1`: the AC50 is > 42 µM (inactive).

In the case of `COc1ccc(/C=C2/SC(=O)N(NS(=O)(=O)c3ccccc3)C2=S)cc1OC`, the AC50 is > 42 µM (inactive).

As to `C=CCC(NCCCO)c1cccc(OC)c1OC` (configuration not stated), the AC50 was > 42 µM (inactive).

On to `O=C1NC2(CCCCC2)NN1c1ccccc1`, for which the AC50 was > 42 µM (inactive).

Regarding `O=C1OCc2cc(NS(=O)(=O)c3cccs3)ccc21`, the AC50 is > 42 µM (inactive).

On to `CCc1nccn1S(=O)(=O)c1cc(OC)ccc1OC`, for which the AC50 is > 42 µM (inactive).

In the case of `CC(C)C(CC(=O)NCc1ccco1)c1ccco1` (configuration not stated), the AC50 was > 42 µM (inactive).

In the case of `CN(C)c1ccc(NC(=O)CSc2nc(N)c(C(=O)Nc3ccc(N(C)C)cc3)s2)cc1`, the AC50 was > 42 µM (inactive).

On to `Cc1cccc(N(Cc2ccccc2)C(=O)CSC(C)C(=O)Nc2cc(C)on2)c1` (configuration not stated), for which the AC50 is > 42 µM (inactive).

Regarding `Cc1cc(C(=O)OCC(=O)Nc2cccc(S(N)(=O)=O)c2)c2ccccc2n1`, the AC50 is > 42 µM (inactive).

Turning to `C[C@H]1CN=C(Nc2ccccc2)N1CCC1CCCC1`, the AC50 was > 42 µM (inactive).

Regarding `CCOc1ccccc1C(=O)N(Cc1cccs1)C1CCS(=O)(=O)C1` (configuration not stated), the AC50 is > 42 µM (inactive).

Regarding `O=C1c2ccccc2NC(c2ccccc2O)N1O` (configuration not stated), the AC50 is > 42 µM (inactive).

With `O=C1CCC(=O)N1CCOP1(=O)COc2ccccc2OC1`, the AC50 was > 42 µM (inactive).

On to `COC(=O)c1sccc1NC(=O)CC1C(=O)NCCN1C(=O)Nc1ccc(F)cc1F` (configuration not stated), for which the AC50 was > 42 µM (inactive).

Turning to `O=C(Cc1ccc(Cl)cc1Cl)OCC(=O)c1ccc[nH]1`, the AC50 was > 42 µM (inactive).

`CN(C)c1cccc(C(=O)Nc2cc(C(F)(F)F)ccc2-n2cnc3ccccc32)c1`: the AC50 is > 42 µM (inactive).

As to `Fc1ccc(-c2nnc3ccc(N4CCCC4)nn23)cc1`, the AC50 was > 42 µM (inactive).

As for `Cc1ccccc1C(=O)NNC(=S)Nc1cccc(C(F)(F)F)c1`, the AC50 is > 42 µM (inactive).

On to `CCOc1ccccc1NC(=O)c1ccc2c(c1)C(=O)N(CC(C)C)C2=O`, for which the AC50 is > 42 µM (inactive).

Regarding `CC(C)(C)C1c2[nH]c3ccccc3c2CCN1Cc1cccc(OCCO)c1` (configuration not stated), the AC50 is > 42 µM (inactive).

As to `CS(=O)(=O)c1ccc(Cl)c(NC(=O)c2ccc3ccccc3c2)c1`, the AC50 was > 42 µM (inactive).

As for `COc1ccccc1C1NC(=O)CS1` (configuration not stated), the AC50 is > 42 µM (inactive).

In the case of `CCN1C(=NCC(C)C)N[C@@H](c2cccc(C(F)(F)F)c2)C(C(=O)OC)=C1C`, the AC50 was > 42 µM (inactive).

Consider `CC[C@@H]1C/C=C\Cc2ccccc2[C@H](C(=O)C[C@@H](O)CC(C)=O)OC1=O`, for which the AC50 was > 42 µM (inactive).

As for `COc1cccc(NC(=S)NC(=O)c2cncc(Br)c2)c1`, the AC50 is > 42 µM (inactive).

On to `COc1ccc(NC(=O)Nc2ccc(OC)cc2)cc1`, for which the AC50 was > 42 µM (inactive).

As to `Cc1cc(O)c(/C=N/Nc2cccc(Cl)c2)c(=O)o1`, the AC50 is > 42 µM (inactive).

For the compound `COC(=O)[C@@]12CCCCN1[C@H](c1ccc(-c3ccc(C(C)=O)cc3)cc1)[C@@H]1C(=O)N(C)C(=O)[C@@H]12`, the AC50 is > 42 µM (inactive).

In the case of `O=C(C1CCN(S(=O)(=O)N2CCC3(CC2)OCCO3)CC1)N1CCC(Cc2ccccc2)CC1`, the AC50 was > 42 µM (inactive).

As for `CCOC(=O)c1ccc(NC(=O)CC2Sc3ncnn3C2=O)cc1` (configuration not stated), the AC50 was > 42 µM (inactive).

With `CCC1CCCCN1C(=O)CSc1nc2c([nH]c3ccccc32)c(=O)n1C` (configuration not stated), the AC50 was > 42 µM (inactive).

Take `Cc1cc(=O)oc2ccc(OC(=O)CC(C)C)cc12`: the AC50 was > 42 µM (inactive).

Regarding `CC(=O)Nc1ccc(C(=O)NCCCOC(C)C)cc1`, the AC50 is > 42 µM (inactive).

On to `N#CC1=C(N)OC2=C(C(=O)CCC2)C1C1CC=CCC1` (configuration not stated), for which the AC50 was > 42 µM (inactive).

As to `O=C1CCCN1CCC(=O)N1CCCC(N2CCN(c3ccccc3F)CC2)C1` (configuration not stated), the AC50 is > 42 µM (inactive).

For the compound `COc1ccc(Nc2cc(NCCCO)c([N+](=O)[O-])c3nonc23)cc1`, the AC50 was > 42 µM (inactive).

Regarding `CCSc1nc2ccccc2c(=O)n1C1CCOC(C)(C)C1` (configuration not stated), the AC50 was > 42 µM (inactive).

For the compound `COc1ccc(NS(=O)(=O)c2ccc(OCC(=O)N3CCOCC3)cc2)cc1Cl`, the AC50 was > 42 µM (inactive).

For the compound `CS(=O)(=O)N(CC(=O)Nc1ccccc1C(=O)N1CCCC1)c1ccc2c(c1)OCO2`, the AC50 was > 42 µM (inactive).

Turning to `Cc1ccc(S(=O)(=O)NCCS(=O)(=O)N2CCN(c3ccc(F)cc3)CC2)cc1`, the AC50 is > 42 µM (inactive).

With `COc1cccc(OC)c1C(=O)N1CCN(Cc2ccccc2C)CC1`, the AC50 is > 42 µM (inactive).

With `CC(C)C1=CC(=Nc2ccc(S(N)(=O)=O)cc2)C=C(C(C)C)C1=O`, the AC50 is > 42 µM (inactive).

`CCCS(=O)(=O)N1CCC(C(=O)N2CCc3ccccc3C2)CC1`: the AC50 is > 42 µM (inactive).

As for `CCOC(=O)c1sc(NC(=O)CSc2n[nH]c(-c3ccc(Cl)cc3Cl)n2)c(C#N)c1C`, the AC50 is > 42 µM (inactive).

In the case of `COCCCn1c(=O)c2ccccc2n(Cc2ccccc2C)c1=O`, the AC50 is > 42 µM (inactive).

As for `COc1ccc(OC)c(CCNC(=O)c2ccc3c(c2)N(Cc2ccc(F)cc2)CCS3)c1`, the AC50 was > 42 µM (inactive).

Take `NNC(=O)c1oc2nc(-c3ccccc3)cc(-c3ccccc3)c2c1N`: the AC50 is > 42 µM (inactive).

With `COc1ccccc1CC(=O)N1CCN(S(=O)(=O)c2ccccc2)CC1`, the AC50 is > 42 µM (inactive).

`CS(=O)(=O)N1CCC(Oc2ccccc2C(=O)N2CCNC(=O)C2)CC1`: the AC50 was > 42 µM (inactive).

Consider `CCC(c1nc2ccccc2c(=O)n1-c1nc2ccccc2s1)N1C(=O)c2ccccc2C1=O` (configuration not stated), for which the AC50 was > 42 µM (inactive).

Consider `Cc1cccc(-[n+]2c(-c3cccc(Br)c3)[nH]c3nc4ccccc4nc32)c1`, for which the AC50 is > 42 µM (inactive).

Regarding `COc1ccc(N=Cc2c(O)n(C)c(=O)[nH]c2=O)cc1`, the AC50 is > 42 µM (inactive).

With `Cc1nc(CSc2nnc3scc(-c4ccccc4)n23)cs1`, the AC50 was > 42 µM (inactive).

Take `COc1ccc(NC(=O)CN2C(=O)c3ccccc3S2(=O)=O)cc1OC`: the AC50 was > 42 µM (inactive).
